Reference: US6046238A, “Method for treating or preventing the spread of acne vulgaris” (TriStrata, Inc., priority 1999, dated 2000)
Converted amounts (≈) assume the structure as drawn. “Also recorded” adds a separate entry of the source. Read-outs that look alike come from different tables or passages of the source.

What was measured:
Staphylococcus aureus = assay: MIC Agar Dilution Test, Staphylococcus aureus; type: cell-based; conditions: S. aureus
From the text: (§1) The following strains of microorganisms were used in Minimum Inhibitory Concentration (MIC) tests for phenyl 2-acetoxyethanoic acid in this example and for benzoyl peroxide, chlorhexidine gluconate and triclosan in the following examples. In total, five strains were used for S. aureus, five strains were used for S. epidermidis, two strains were used for M. sedentarius, three strains were used for M. luteus, two strains were used for B. epidermis, three strains were used for C. minutissium, one strain was used for S. marcescens, three strains were used for P. aeruginosa, four strains were used for E. coli, and thirty-two strains were used for P. acnes.
(§2) Antimicrobial effects were determined based on MIC Agar Dilution Test utilizing Trypticase Soy Agar II (BBL) incorporation plates with and without 10% intralipid (Kabi Pharmacia Inc.). Initially, phenyl 2-acetoxyethanoic acid was prepared as a 2 mg/ml (0.2%) solution in water. This solution with serial dilution was incorporated into the test agar plates. The MIC test gave similar results when the same species but a different strain was used.
(§3) Under the same test conditions described in Example 1, benzoyl peroxide was prepared as a 2.5 mg/ml (0.25%) solution in water. This solution with serial dilution was incorporated into the test agar plates. Typical test results are shown as follows.
(§4) Under the same test conditions described in Example 1, chlorhexidine gluconate was prepared as a 2 mg/ml (0.2%) solution in water. This solution with serial dilution was incorporated into the test agar plates. Typical test results are shown as follows.
(§5) Under the same test conditions described in Example 1, triclosan was prepared as a 10 mg/ml (1%) solution in water. This solution with serial dilution was incorporated into the test agar plates. Typical test results are shown as follows.
(§6) Ten different species of bacteria were used in Minimum Inhibitory Concentration (MIC) tests. The bacteria include S. aureus, S. epidermidis,M. sedentarius, M. luteus, B. epidermis, C. minutissium, S. marcescens, P. aeruginosa, E. coli, and P. acnes. In addition various sources and strains of these bacteria were also included in the tests, and up to 32 different strains of P. acnes were used.
(§7) The test substance selected from phenyl 2-acetoxyethanoic acid, benzoyl peroxide, chlorhexidine gluconate and triclosan was dissolved in water, and the solution with serial dilution was incorporated into the test agar plates. The plates containing different concentrations of test substance were inoculated with a strain of bacterium. MIC is defined as the lowest concentration of the test substance in the plate in which there is no growth of the microorganism.

[1] = treatment of oral infections; type: in vivo, human; conditions: 2% composition diluted to 0.1%; oral rinse twice daily
Protocol: Compositions for treatment of oral infections may contain an aryl 2-acetoxyethanoic acid as the only active ingredient. In this case a phenyl 2-acetoxyethanoic acid or diphenyl 2-acetoxyethanoic acid 2% composition was formulated by dissolving the active ingredient 2 g in ethanol 78 ml and propylene glycol 20 ml. Before use, this composition was diluted to 0.1% with water by mixing one part of the composition with 19 parts of water. The treatment involves oral rinse, wash and gargle by keeping the diluted composition inside the oral cavity for a few minutes, and then spit out. Such procedure may be repeated twice daily for several days until the infection is eradicated usually within 5-7 days.

[2] = prophylactic effect in preventing the development of axillary foul odor; type: in vivo, human; conditions: Example 5; 0.5% solution, topical; one person; up to 24 hours
Protocol: A typical test for prophylactic effect in preventing the development of axillary foul odor was carried out as follows. A test composition was prepared by dissolving 0.5 g of phenyl 2-acetoxyethanoic acid or diphenyl 2-acetoxyethanoic acid in 70 ml of ethanol and 30 ml of propylene glycol. The control vehicle was prepared by mixing 70 ml of ethanol and 30 ml of propylene glycol. A human subject was instructed to take a shower in the morning using ordinary soap to clean the body surfaces. After the skin was dried, the test composition was topically applied to the left underarm area only. The vehicle control was topically applied to the right underarm area. Both underarm areas were monitored by the subject and at least one other person approximately every 8 hours to determine whether the test composition had any prophylactic effect in preventing the development of underarm foul odor in the left axilla as compared to the vehicle alone on the right control armpit.
Presence or substantial absence of foul odor, detected by smell, was adopted as the criteria for ineffectiveness or effectiveness of the test composition.
A total of seven subjects (four females; three males) participated in several studies. Most of these subjects could not use existing commercial products of antiperspirants or deodorants because of severe irritation after topical application. […]

Brevibacterium epidermis = assay: MIC Agar Dilution Test, Brevibacterium epidermis; type: cell-based; conditions: B. epidermis
From the text: as §1, §2, §3, §4, §5, §6, §7

Pseudomonas aeruginosa = assay: MIC Agar Dilution Test, Pseudomonas aeruginosa; type: cell-based; conditions: P. aeruginosa
From the text: as §1, §2, §3, §4, §5, §6, §7

[3] = prevention and treatment of foot malodor; type: in vivo, human; conditions: 1% in talc powder
Protocol: A typical test for prophylactic effect in preventing the development of, as well as treatment of, foot malodor was carried out as follows. A test composition in powder form was prepared by mixing 1 g of finely powdered phenyl 2-acetoxyethanoic acid with 99 g of talc powder. The talc powder alone was used as a control vehicle.
A human subject had persistent foot malodor all year round. […] On the first morning, the subject was instructed to spread the test composition lightly on the left foot and also inside the hose. The control vehicle was used on the right foot and inside the hose. […] The subject was then instructed to apply the test composition on both feet the second morning.
A total of six subjects (three females; three males) participated in several studies.
A test composition containing 1% phenyl 2-acetoxyethanoic acid in powder form was prepared by mixing thoroughly 1 g of finely powdered compound with 99 g of talc powder. The talc powder alone was used as a control vehicle. The test composition and the control vehicle were packaged in one-ounce powder containers. The participating subjects were instructed to lightly spread the test composition on the bottom of the left foot and inside the hose or sock on the first morning.
The criteria for ineffectiveness or effectiveness of the test composition were based on presence or absence of malodor as detected by olfactory sense of smell. Both feet were monitored by the subject and at least one other person in the evening.
The subjects were then instructed to apply the test composition on both feet the next morning. […] The same topical applications were continued by all the participants for several days to confirm the above results.

Micrococcus sedentarius = assay: MIC Agar Dilution Test, Micrococcus sedentarius; type: cell-based; conditions: Kytococcus sedentarius, M. sedentarius
From the text: as §1, §2, §3, §4, §5, §6, §7

[4] = 10% intralipid, read-out: MIC Lipid
[5] = no lipid, read-out: MIC No Lipid

## CC(=O)OC(C(=O)O)c1ccccc1 (centres unmarked) [phenyl 2-acetoxyethanoic acid]
Staphylococcus aureus; [4]
  MIC: 500 µg/mL (≈ 2.57 mM)
Staphylococcus aureus; [5]
  MIC: 500 µg/mL (≈ 2.57 mM)
[1]
  time within which oral infection is usually eradicated: 5 to 7 days
[2]
  prevention of axillary foul odor (left underarm): did not produce any detectable odor, even after 24 hours; also recorded: substantially effective in preventing the development of axillary foul odor
Brevibacterium epidermis; [4]
  MIC: 1000 µg/mL (≈ 5.15 mM)
Brevibacterium epidermis; [5]
  MIC: 1000 µg/mL (≈ 5.15 mM)
Pseudomonas aeruginosa; [4]
  MIC: 1000 µg/mL (≈ 5.15 mM)
Pseudomonas aeruginosa; [5]
  MIC: 1000 µg/mL (≈ 5.15 mM)
[3]
  overall effectiveness against foot malodor: topically effective in preventing the development of and in treating foot malodor; also recorded: topically effective in preventing the development of and was also therapeutically effective for topical treatment of foot malodor
[3]; both feet treated
  malodor of both feet at the end of the second day: produced no detectable malodor
[3]; left foot treated, right foot vehicle
  malodor of left foot by the first evening: produced no detectable malodor in all the participating subjects
[3]; several days
  malodor on continued application: complete suppression of malodor was sustained
Micrococcus sedentarius; [4]
  MIC: 500 µg/mL (≈ 2.57 mM)
Micrococcus sedentarius; [5]
  MIC: 500 µg/mL (≈ 2.57 mM)
